The text below walks through data of ChEMBL document CHEMBL2406914 (ACS Med Chem Lett, 2013).

Data set [1] concerns HepG2. As to the kind of experiment: Cytotoxicity against human HepG2 cells assessed as intracellular ATP level after 24 hrs by luciferase reporter gene assay. Type of data set: cell-based. The note with it: HepG2, 24 h.
For data set [2], the target named is T1, Prostaglandin G/H synthase 1 (Ovis aries, UniProt P05979).
T1 sequence (P05979 whole entry): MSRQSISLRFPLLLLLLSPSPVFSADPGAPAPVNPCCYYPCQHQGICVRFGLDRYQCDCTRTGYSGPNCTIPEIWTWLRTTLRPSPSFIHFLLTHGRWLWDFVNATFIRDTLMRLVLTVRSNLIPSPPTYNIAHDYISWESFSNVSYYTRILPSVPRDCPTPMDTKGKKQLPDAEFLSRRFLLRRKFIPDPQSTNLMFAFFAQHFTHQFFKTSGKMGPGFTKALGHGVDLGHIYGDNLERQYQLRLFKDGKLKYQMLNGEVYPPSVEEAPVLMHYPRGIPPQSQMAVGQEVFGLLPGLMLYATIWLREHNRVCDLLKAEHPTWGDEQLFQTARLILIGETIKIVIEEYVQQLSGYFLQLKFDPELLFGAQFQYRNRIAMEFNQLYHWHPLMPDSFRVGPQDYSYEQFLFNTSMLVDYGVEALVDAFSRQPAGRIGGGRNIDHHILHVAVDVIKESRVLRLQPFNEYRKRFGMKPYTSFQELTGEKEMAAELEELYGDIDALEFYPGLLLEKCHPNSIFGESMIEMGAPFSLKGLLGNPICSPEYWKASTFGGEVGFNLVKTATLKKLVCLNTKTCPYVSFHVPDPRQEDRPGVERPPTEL
As to the kind of experiment: Inhibition of ovine COX1-mediated arachidonic acid oxidation using [14C]AA as substrate after 5 mins by GC/NICI/MS analysis.

Data set [3] is described as follows: Metabolic stability in rat liver microsomes assessed as compound remaining at 10 uM after 30 mins by LC-MS analysis. As to conditions: human.
Data set [4] concerns the target T2, Myoglobin (Homo sapiens, UniProt P02144).
T2 sequence (P02144 whole entry): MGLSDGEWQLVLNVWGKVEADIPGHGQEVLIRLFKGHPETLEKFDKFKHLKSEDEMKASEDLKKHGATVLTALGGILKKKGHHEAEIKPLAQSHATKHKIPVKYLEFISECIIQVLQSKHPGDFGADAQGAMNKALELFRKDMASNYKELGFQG
As to the kind of experiment: Inhibition of myoglobin (unknown origin)-mediated arachidonic acid oxidation using [14C]AA as substrate after 3 hrs by GC/NICI/MS analysis.

Regarding `Cc1nc2c(c(C)c1O)CNC(=O)N2`, the EC50 in data set [1] worked out at 2960 µM. In data set [2], this compound had a concentration for half-maximal inhibition (IC50) of over 1000 µM. The amount remaining at 0.5 h, 10 µM in data set [3] was found to be 87%.
Taken in the same sequence, the figures for `Cc1nc2c(c(C)c1O)COC(=O)N2` were over 5000 µM, 198 µM and 97%.
The corresponding values for `O=C1NCc2cc(O)cnc2N1` are 4760 µM, 451 µM and 108%.
For `CC(=O)Nc1ccc(O)cc1` [ACETAMINOPHEN], the EC50 in data set [1] came to 594 µM. The IC50 in data set [4] was determined as 2.3 µM; in data set [2] it was 372 µM.
